The test system of assay [1] is UACC-257. The assay can be described thus: NCI In Vitro Cell Line Screening (SRB). It counts as cell-based, human. Conditions: UACC-257, Melanoma, 48 h.
The subject of assay [2] is Caco-2. Description: Cell viability by XTT. How it is done:
(§1) Compounds were solubilized at […] in DMSO and were stored at −20° C. Test compounds were initially tested at a single concentration of 10 μM and a subset of test compounds were further tested in selected cell lines using a six concentration dose response curve.
(§2) Cell Preparation Cancer cell lines were passaged in T-75 flasks prior to use in the assay in cell culture medium recommended by the ATCC (American Type Culture Collection; Table 6). On the day preceding the assay, the cells were split 1:2 to assure they were in an exponential growth phase at the time of compound treatment. Total cell and viability quantification was performed using a hemocytometer and Trypan Blue dye exclusion. […] The cells were resuspended at the appropriate cell per mL (Table 6) in tissue culture medium and added to the microtitre plates in a volume of 100 μL. Colon cell lines were incubated overnight at 37° C./5% CO2 to allow for cell adherence to the plates.
(§3) Plate Format: Each plate contains cell control wells (cells only), drug calorimetric control wells (drug only) as well as experimental wells (drug plus cells). Samples were tested in triplicate at a concentration of 10 μM and five half-logarithmic dilutions.
(§4) Cell Viability by XTT: Following incubation at 37° C. in a 5% CO2 incubator for four days, the test plates were stained with the tetrazolium dye XTT (2,3-bis(2-methoxy-4-nitro-5-sulfophenyl)-5-[(phenylamino)carbonyl]-2H-tetrazolium hydroxide). XTT-tetrazolium was metabolized by the mitochondrial enzymes of metabolically active cells to a soluble formazan product. XTT solution was prepared daily as a stock of 1 mg/mL in RPMI1640. Phenazine methosulfate (PMS) solution was prepared at 0.15 mg/mL in phosphate buffered saline (PBS) and stored in the dark at −20° C. XTT/PMS stock was prepared immediately before use by adding 40 μL of PMS per mL of XTT solution. Fifty (50) microlitres of XTT/PMS was added to each well of the plate and the plate was reincubated for 4 hours at 37° C. Plates were sealed with adhesive plate sealers and shaken gently or inverted several times to mix the soluble formazan product and the plate was read spectrophotometrically at 450/650 nm with a Molecular Devices Vmax plate reader. […] An Average Response Factor (ARF) was calculated for each compound by averaging the ten Percentage of Control values for the cell lines. […] Deviations below 100% control indicate activity. The concentration of each tested compound is 10 μM.

Assay [3] relates to Jurkat. Description: Cell viability by XTT. As to the method: as §1, §2, §3, §4
Background: Tetrazolium dyes change colour on reduction, which living cells bring about.

The test system of assay [4] is THP-1. Description: Cell viability by XTT. As to the method: as §1, §2, §3, §4
Assay [5] concerns HT29. Description: cells. As to the method:
as §1, §2, §3, §4

For assay [6], the system named is HCT-15. The assay can be described thus: Cell viability by XTT. It counts as cell-based. The settings on record: HCT-15, single dose 10 μM, four days. As to the method: as §1, §2, §3, §4
The test system of assay [7] is HL-60. Description: Cell viability by XTT. It counts as cell-based. The settings on record: HL-60, single dose 10 μM, four days. How it is done:
as §1, §2, §3, §4

Each structure is given as a SMILES string.

In turn, `CC(C)(C)c1ccc(NC(=O)[C@H](CCCCN)NC(=O)OCC2c3ccccc3-c3ccccc32)cc1` [Compound 105, (S)-[5-AMINO-1-(4-TERT-BUTYL-PHENYLCARBAMOYL)-PENTYL]-CARBAMIC ACID 9H-FLUOREN-9-YLMETHYL ESTER] returned a GI50 in assay [1] (Homo sapiens) of 1.75 µM. The compound also gave a TGI in assay [1] of 3.70 µM. Besides, the “Percentage of Cell Control” value was found to be 0% in assay [2] (Caco-2, single dose 10 μM, four days); 23.5% in assay [3] (single dose 10 μM, four days); 0% in assay [4] (THP-1, single dose 10 μM, four days); 13.8% in assay [5] (HT29, single dose 10 μM, four days); 85.6% in assay [6]; 19.6% in assay [7]. Besides, the CC50 in assay [2] (Homo sapiens, Caco-2, read-out: Activity (TC50)) stood at 8.6 µM; in assay [3] (Homo sapiens, read-out: Activity (TC50)), 2.5 µM; in assay [4] (Homo sapiens, THP-1, read-out: Activity (TC50)) it was 6.7 µM; in assay [5] (Homo sapiens, HT-29, read-out: Activity (TC50)), 8.5 µM.

Broadly, the GI50 is the concentration that inhibits growth by half. Low values mean more potent growth inhibition, high ones less potent growth inhibition. As a reminder, the TGI is the concentration at which net growth stops.

The values above are taken from patent US20080171783A1, “COMPOSITIONS AND METHODS FOR TREATING HYPERPROLIFERATIVE DISEASE” (Migenix Inc., priority 2006, published 2008).
